Test results published in patent US20250195513A1, “DEGRADATION OF IRAK4 BY CONJUGATION OF IRAK4 INHIBITORS WITH E3 LIGASE LIGAND AND METHODS OF USE” (BeiGene, Ltd., priority 2022, published 2025).

How the values were obtained:
[1] = target: T1, IRAK4 (Homo sapiens, UniProt Q9NWZ3); experiment: IRAK4 Degradation Assay (Karpas299, HTRF/TR-FRET); type: cell-based; conditions: Karpas-299 cells; for Dmax: maximum percentage of degradation
T1 construct: endogenous in cells; host or cells: Karpas299
T1 sequence (Q9NWZ3 1-460): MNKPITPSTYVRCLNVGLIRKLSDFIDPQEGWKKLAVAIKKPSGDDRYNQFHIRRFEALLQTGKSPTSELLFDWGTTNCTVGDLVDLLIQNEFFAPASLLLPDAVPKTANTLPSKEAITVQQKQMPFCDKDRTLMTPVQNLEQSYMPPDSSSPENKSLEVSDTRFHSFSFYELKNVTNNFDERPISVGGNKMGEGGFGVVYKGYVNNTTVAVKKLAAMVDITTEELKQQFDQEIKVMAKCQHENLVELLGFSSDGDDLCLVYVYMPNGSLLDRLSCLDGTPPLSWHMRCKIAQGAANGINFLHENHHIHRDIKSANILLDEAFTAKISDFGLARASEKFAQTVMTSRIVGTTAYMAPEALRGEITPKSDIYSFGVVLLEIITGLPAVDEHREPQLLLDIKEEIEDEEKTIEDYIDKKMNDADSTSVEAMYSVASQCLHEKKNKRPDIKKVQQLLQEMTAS
Summary of the method: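 Compound potency as DC50 (IC50) came from four-parameter fits of percent IRAK4 degradation. IRAK4 was measured by HTRF (665/620 nm) in lysates of Karpas299 cells seeded at 0.2 million per well. Cells had been treated with compound dilutions for 5 or 24 h.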

[2] = target: T1, IRAK4; experiment: IRAK4 Degradation Assay with Human Serum (Karpas299, HTRF/TR-FRET); type: cell-based; conditions: Karpas-299 in human serum, 24 hrs treatment; for DC50: read-out: IRAK4 degradtion with human serum assay DC50; for Dmax: read-out: IRAK4 degradtion with human serum assay Dmax (%)
Summary of the method: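 Remaining IRAK4 measured by TR-FRET immunoassay on lysates of Karpas299 cells exposed 24 h to compound dilution series in human serum AB. DC50 derived from a Hill-slope fit of % degradation versus concentration.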

[3] = 24 h treatment, read-out: IRAK4 in Karpas-299 (24 h) Dmax (%)
[4] = 24 h treatment, read-out: IRAK4 in Karpas-299 (24 h) DC50

Dmax [1, 3] [%]	DC50 [1, 4] [nM]	DC50 [2] [nM]	Dmax [2] [%]	Dmax ([1]; 5 h treatment, read-out: IRAK4 in Karpas-299 (5 h) Dmax (%)) [%]	DC50 ([1]; 5 h treatment, read-out: IRAK4 in Karpas-299 (5 h) DC50) [nM]	Compound
98	1.3	8.3	100			C[C@H]1CN(CC2CN(c3cc(F)c([C@H]4CCC(=O)NC4=O)c(F)c3)C2)CCN1[C@H]1CC[C@H](n2cc3cc(NC(=O)c4ccc5cc(C#N)cnn45)c(C(C)(C)O)cc3n2)CC1 [Example 306, 3-cyano-N-(2-((1S,4r)-4-((S)-4-((1-(4-((R)-2,6-dioxopiperidin-3-yl)-3,5-difluorophenyl)azetidin-3-yl)methyl)-2-methylpiperazin-1-yl)cyclohexyl)-6-(2-hydroxypropan-2-yl)-2H-indazol-5-yl)pyrrolo[1,2-b]pyridazine-7-carboxamide]
98	0.4	11	96			CC(C)(O)c1cc2nn([C@H]3CC[C@H](N4CCN(C[C@H]5C[C@H](c6cc(F)c([C@H]7CCC(=O)NC7=O)c(F)c6)C5)CC4)CC3)cc2cc1NC(=O)c1ccc2cc(C#N)cnn12 [Example 382, 3-cyano-N-(2-((1R,4r)-4-(4-(((1R,3R)-3-(4-((R)-2,6-dioxopiperidin-3-yl)-3,5-difluorophenyl)cyclobutyl)methyl)piperazin-1-yl)cyclohexyl)-6-(2-hydroxypropan-2-yl)-2H-indazol-5-yl)pyrrolo[1,2-b]pyridazine-7-carboxamide]
96	0.9	2.4	102			C[C@@H]1CN(CC2CN(c3cc(F)c([C@H]4CCC(=O)NC4=O)c(F)c3)C2)CCN1[C@H]1CC[C@H](n2cc3cc(NC(=O)c4ccc5cc(C#N)cnn45)c(C(C)(C)O)cc3n2)CC1 [Example 300, 3-cyano-N-(2-((1R,4r)-4-((R)-4-((1-(4-((R)-2,6-dioxopiperidin-3-yl)-3,5-difluorophenyl)azetidin-3-yl)methyl)-2-methylpiperazin-1-yl)cyclohexyl)-6-(2-hydroxypropan-2-yl)-2H-indazol-5-yl)pyrrolo[1,2-b]pyridazine-7-carboxamide]
97	1.4	8.6	98			COC[C@H]1CN(C2CCN(c3ccc(C4CCC(=O)NC4=O)nc3C)CC2)CCN1[C@H]1CC[C@H](n2cc3cc(NC(=O)c4ccc5cc(C#N)cnn45)c(C(C)(C)O)cc3n2)CC1 (stereo partly drawn) [Example 415, 3-cyano-N-(2-((1R,4r)-4-((2R)-4-(1-(6-(2,6-dioxopiperidin-3-yl)-2-methylpyridin-3-yl)piperidin-4-yl)-2-(methoxymethyl)piperazin-1-yl)cyclohexyl)-6-(2-hydroxypropan-2-yl)-2H-indazol-5-yl)pyrrolo[1,2-b]pyridazine-7-carboxamide]
94	1	13	100			CC(C)(O)c1cc2nn([C@H]3CC[C@H](N4CCN(CCc5cc(F)c([C@H]6CCC(=O)NC6=O)c(F)c5)C[C@@H]4CC#N)CC3)cc2cc1NC(=O)c1ccc2cc(C#N)cnn12 [Example 389, 3-cyano-N-(2-((1S,4r)-4-((S)-2-(cyanomethyl)-4-(4-((R)-2,6-dioxopiperidin-3-yl)-3,5-difluorophenethyl)piperazin-1-yl)cyclohexyl)-6-(2-hydroxypropan-2-yl)-2H-indazol-5-yl)pyrrolo[1,2-b]pyridazine-7-carboxamide]
97	3.4	14	98			CC(C)(O)c1cc2nn([C@H]3CC[C@H](N4CCN([C@@H]5CCN(c6ccc(N7CCC(=O)NC7=O)cc6)C5)CC4)CC3)cc2cc1NC(=O)c1ccc2cc(C#N)cnn12 [Example 294, 3-cyano-N-(2-((1R,4r)-4-(4-((R)-1-(4-(2,4-dioxotetrahydropyrimidin-1(2H)-yl)phenyl)pyrrolidin-3-yl)piperazin-1-yl)cyclohexyl)-6-(2-hydroxypropan-2-yl)-2H-indazol-5-yl)pyrrolo[1,2-b]pyridazine-7-carboxamide]
101	0.4	16	101			C[C@@H]1CN(C(=O)C2CN(c3cc(F)c(N4CCC(=O)NC4=O)c(F)c3)C2)CCN1[C@H]1CC[C@H](n2cc3cc(NC(=O)c4ccc5cc(C#N)cnn45)c(C(C)(C)O)cc3n2)CC1 [Example 303, 3-cyano-N-(2-((1R,4r)-4-((R)-4-(1-(4-(2,4-dioxotetrahydropyrimidin-1(2H)-yl)-3,5-difluorophenyl)azetidine-3-carbonyl)-2-methylpiperazin-1-yl)cyclohexyl)-6-(2-hydroxypropan-2-yl)-2H-indazol-5-yl)pyrrolo[1,2-b]pyridazine-7-carboxamide]
98	0.8	19	101			COC[C@@H]1CN(C2CCN(c3cc(F)c([C@H]4CCC(=O)NC4=O)c(F)c3)CC2)CCN1[C@H]1CC[C@H](n2cc3cc(NC(=O)c4ccc5cc(C#N)cnn45)c(C(C)(C)O)cc3n2)CC1 [Example 328, 3-cyano-N-(2-((1S,4r)-4-((S)-4-(1-(4-((R)-2,6-dioxopiperidin-3-yl)-3,5-difluorophenyl)piperidin-4-yl)-2-(methoxymethyl)piperazin-1-yl)cyclohexyl)-6-(2-hydroxypropan-2-yl)-2H-indazol-5-yl)pyrrolo[1,2-b]pyridazine-7-carboxamide]
97	1.9	191	97			CC(C)(O)c1cc2nn([C@H]3CC[C@H](N4CCN(C(=O)C5CN(c6cc(F)c([C@H]7CCC(=O)NC7=O)c(F)c6)C5)CC4)CC3)cc2cc1NC(=O)c1ccc2cc(C(F)(F)F)cnn12 [Example 207]
99	4.7	9.4	101			CC(C)(O)c1cc2nn([C@H]3CC[C@H](N4CCN(CCNc5cccc6c5C(=O)N(C5CCC(=O)NC5=O)C6=O)CC4)CC3)cc2cc1NC(=O)c1ccc2cc(C#N)cnn12 (stereo partly shown) [Example 437, 3-cyano-N-(2-((1r,4r)-4-(4-(2-((2-(2,6-dioxopiperidin-3-yl)-1,3-dioxoisoindolin-4-yl)amino)ethyl)piperazin-1-yl)cyclohexyl)-6-(2-hydroxypropan-2-yl)-2H-indazol-5-yl)pyrrolo[1,2-b]pyridazine-7-carboxamide]
96	2.9	8.4	94			Cc1nc(C2CCC(=O)NC2=O)ccc1N1CCC(N2CCC3(CCC(n4cc5cc(NC(=O)c6ccc7cc(C#N)cnn67)c(C(C)(C)O)cc5n4)CC3)CC2)CC1 (stereo not shown) [Example 427, 3-cyano-N-(2-(3-(1-(6-(2,6-dioxopiperidin-3-yl)-2-methylpyridin-3-yl)piperidin-4-yl)-3-azaspiro[5.5]undecan-9-yl)-6-(2-hydroxypropan-2-yl)-2H-indazol-5-yl)pyrrolo[1,2-b]pyridazine-7-carboxamide]
93	2.9	33	94			CC(C)(O)c1cc2nn(C3CCC4(CC3)CCN(C3CN(c5cc(F)c([C@H]6CCC(=O)NC6=O)c(F)c5)C3)CC4)cc2cc1NC(=O)c1ccc2cc(C#N)cnn12 [Example 428, (R)-3-cyano-N-(2-(3-(1-(4-(2,6-dioxopiperidin-3-yl)-3,5-difluorophenyl)azetidin-3-yl)-3-azaspiro[5.5]undecan-9-yl)-6-(2-hydroxypropan-2-yl)-2H-indazol-5-yl)pyrrolo[1,2-b]pyridazine-7-carboxamide]
97	1.4	6	99	96	3.4	Cc1cc(C2CCC(=O)NC2=O)c(F)cc1[C@H]1C[C@H](N2CCN([C@H]3CC[C@H](n4cc5cc(NC(=O)c6ccc7cc(C#N)cnn67)c(C(C)(C)O)cc5n4)CC3)CC2)C1 (stereo partly drawn) [Example 297, 3-cyano-N-(2-((1R,4r)-4-(4-((1r,3R)-3-(4-(2,6-dioxopiperidin-3-yl)-5-fluoro-2-methylphenyl)cyclobutyl)piperazin-1-yl)cyclohexyl)-6-(2-hydroxypropan-2-yl)-2H-indazol-5-yl)pyrrolo[1,2-b]pyridazine-7-carboxamide]
98	0.3	35	95			COC[C@@H]1CN(C(=O)C2CN(c3cc(F)c([C@H]4CCC(=O)NC4=O)c(F)c3)C2)CCN1[C@H]1CC[C@H](n2cc3cc(NC(=O)c4ccc5cc(C#N)cnn45)c(C(C)(C)O)cc3n2)CC1 [Example 183, 3-cyano-N-(2-((1S,4r)-4-((S)-4-(1-(4-((R)-2,6-dioxopiperidin-3-yl)-3,5-difluorophenyl)azetidine-3-carbonyl)-2-(methoxymethyl)piperazin-1-yl)cyclohexyl)-6-(2-hydroxypropan-2-yl)-2H-indazol-5-yl)pyrrolo[1,2-b]pyridazine-7-carboxamide]
